# Measured values taken from ChEMBL document CHEMBL3885861, “Open TG-GATES”.
# Species: Rattus norvegicus
# Test: Open TG-GATES - Regimen: Daily Repeat
# Assay type: toxicity, organism-based, Sprague-Dawley
# Design: regimen Daily Repeat, gender Male, age 6 weeks
# Conditions: in vivo, iv, route intravenous injection; for Bas / Eos / Fbg / Ht / Lym / MCH / MCHC / MCV / Mono / PT / RBC / Ret / WBC: tissue Blood; for KIDNEY_L / KIDNEY_R / KIDNEY_TOTAL: tissue Kidney; for ALP / AST / CRE / DBIL / GLC / IP / K / Na / PL / RALB / TBIL / TG / TP / gamma-GTP / TC: tissue Plasma
# [1] = 0 mg/kg, 72 h, dose level Control, time 3 day
# [2] = 0 mg/kg, […], dose level Control, time 7 day
# [3] = 0 mg/kg, […], dose level Control, time 14 day
# [4] = 0 mg/kg, […], dose level Control, time 28 day
# [5] = 1 mg/kg, 72 h, dose level High, time 3 day
# [6] = 1 mg/kg, […], dose level High, time 7 day
# [7] = 1 mg/kg, […], dose level High, time 14 day
# [8] = 1 mg/kg, […], dose level High, time 28 day
smiles,measurement,setting,value
COc1cccc2c1C(=O)c1c(O)c3c(c(O)c1C2=O)C[C@@](O)(C(=O)CO)C[C@@H]3O[C@H]1C[C@H](N)[C@H](O)[C@H](C)O1 [DOXORUBICIN],TERMINAL_BW,[1],230.2 g
same,Bas,[1],0%
same,Eos,[1],0.8%
same,Fbg,[1],276.4 mg/dL
same,Ht,[1],37.6%
same,Lym,[1],80%
same,MCH,[1],21.3 pg
same,MCHC,[1],34.2%
same,MCV,[1],62.3 fL
same,Mono,[1],2.8%
same,PT,[1],16.3 s
same,RBC,[1],603.8 x10_4/ul
same,Ret,[1],5.8%
same,WBC,[1],107.3 x10_2/uL
same,KIDNEY_L,[1],1 g
same,KIDNEY_R,[1],1 g
same,KIDNEY_TOTAL,[1],2 g
same,ALP,[1],1504.4 IU/L
same,AST,[1],70.6 IU/L
same,CRE,[1],0.2 mg/dL
same,DBIL,[1],0.002 mg/dL
same,GLC,[1],193.8 mg/dL
same,IP,[1],6.9 mg/dL
same,K,[1],4.8 meq/L
same,Na,[1],141 meq/L
same,PL,[1],141 mg/dL
same,RALB,[1],3 g/dL
same,TBIL,[1],0.006 mg/dL
same,TG,[1],86.6 mg/dL
same,TP,[1],5.4 g/dL
same,gamma-GTP,[1],1.4 IU/L
same,TERMINAL_BW,[2],251.1 g
same,TERMINAL_BW,[3],307.3 g
same,TERMINAL_BW,[4],382.5 g
same,Bas,[2],0%
same,Eos,[2],0.6%
same,Fbg,[2],285.8 mg/dL
same,Ht,[2],38.4%
same,Lym,[2],77.4%
same,MCH,[2],20.8 pg
same,MCHC,[2],35.3%
same,MCV,[2],58.9 fL
same,Mono,[2],2.8%
same,PT,[2],16.5 s
same,RBC,[2],652.8 x10_4/ul
same,Ret,[2],5.5%
same,WBC,[2],121 x10_2/uL
same,Bas,[3],0%
same,Eos,[3],0.8%
same,Fbg,[3],305.6 mg/dL
same,Ht,[3],39.4%
same,Lym,[3],82.2%
same,MCH,[3],20.5 pg
same,MCHC,[3],35.8%
same,MCV,[3],57 fL
same,Mono,[3],2.2%
same,PT,[3],16.1 s
same,RBC,[3],691.8 x10_4/ul
same,Ret,[3],4.8%
same,WBC,[3],124.7 x10_2/uL
same,Bas,[4],0%
same,Eos,[4],1.4%
same,Fbg,[4],305.6 mg/dL
same,Ht,[4],42.7%
same,Lym,[4],85.6%
same,MCH,[4],19.6 pg
same,MCHC,[4],36.3%
same,MCV,[4],54 fL
same,Mono,[4],2%
same,PT,[4],16.4 s
same,RBC,[4],792.2 x10_4/ul
same,Ret,[4],2.9%
same,WBC,[4],144.2 x10_2/uL
same,KIDNEY_L,[2],1.1 g
same,KIDNEY_R,[2],1.1 g
same,KIDNEY_TOTAL,[2],2.2 g
same,KIDNEY_L,[3],1.2 g
same,KIDNEY_R,[3],1.2 g
same,KIDNEY_TOTAL,[3],2.3 g
same,KIDNEY_L,[4],1.4 g
same,KIDNEY_R,[4],1.4 g
same,KIDNEY_TOTAL,[4],2.7 g
same,ALP,[2],1305.8 IU/L
same,AST,[2],67 IU/L
same,CRE,[2],0.2 mg/dL
same,DBIL,[2],0 mg/dL
same,GLC,[2],188.2 mg/dL
same,IP,[2],7.2 mg/dL
same,K,[2],4.5 meq/L
same,Na,[2],142.2 meq/L
same,RALB,[2],2.9 g/dL
same,TBIL,[2],0.014 mg/dL
same,TC,[2],74.4 mg/dL
same,TG,[2],100.2 mg/dL
same,TP,[2],5.3 g/dL
same,gamma-GTP,[2],1.2 IU/L
same,ALP,[3],1239.2 IU/L
same,AST,[3],59.2 IU/L
same,CRE,[3],0.2 mg/dL
same,DBIL,[3],0 mg/dL
same,GLC,[3],203 mg/dL
same,IP,[3],6.9 mg/dL
same,K,[3],4.4 meq/L
same,Na,[3],140.8 meq/L
same,RALB,[3],3.1 g/dL
same,TBIL,[3],0.018 mg/dL
same,TC,[3],69 mg/dL
same,TG,[3],129.2 mg/dL
same,TP,[3],5.7 g/dL
same,gamma-GTP,[3],2.6 IU/L
same,ALP,[4],795.8 IU/L
same,AST,[4],64.8 IU/L
same,CRE,[4],0.3 mg/dL
same,DBIL,[4],0 mg/dL
same,GLC,[4],186.6 mg/dL
same,IP,[4],6.7 mg/dL
same,K,[4],4.1 meq/L
same,Na,[4],140.6 meq/L
same,PL,[4],130.8 mg/dL
same,RALB,[4],3.1 g/dL
same,TBIL,[4],0.006 mg/dL
same,TC,[4],65 mg/dL
same,TG,[4],96.2 mg/dL
same,TP,[4],6.1 g/dL
same,gamma-GTP,[4],1 IU/L
same,TERMINAL_BW,[5],213.7 g
same,Bas,[5],0%
same,Eos,[5],1%
same,Fbg,[5],293 mg/dL
same,Ht,[5],37.6%
same,Lym,[5],83.6%
same,MCH,[5],21.4 pg
same,MCHC,[5],35%
same,MCV,[5],61.1 fL
same,Mono,[5],2.4%
same,PT,[5],16.3 s
same,RBC,[5],616 x10_4/ul
same,Ret,[5],1%
same,WBC,[5],40.5 x10_2/uL
same,KIDNEY_L,[5],0.9 g
same,KIDNEY_R,[5],0.9 g
same,KIDNEY_TOTAL,[5],1.8 g
same,ALP,[5],1562.4 IU/L
same,AST,[5],64.4 IU/L
same,CRE,[5],0.2 mg/dL
same,DBIL,[5],0 mg/dL
same,GLC,[5],194.4 mg/dL
same,IP,[5],7 mg/dL
same,K,[5],4.3 meq/L
same,Na,[5],141.4 meq/L
same,RALB,[5],3.1 g/dL
same,TBIL,[5],0.014 mg/dL
same,TC,[5],79 mg/dL
same,TG,[5],78.2 mg/dL
same,TP,[5],5.6 g/dL
same,gamma-GTP,[5],1.4 IU/L
same,TERMINAL_BW,[6],236 g
same,TERMINAL_BW,[7],244.4 g
same,TERMINAL_BW,[8],221.9 g
same,Bas,[6],0%
same,Eos,[6],1.4%
same,Fbg,[6],307.2 mg/dL
same,Ht,[6],34.1%
same,Lym,[6],84.2%
same,MCH,[6],20.5 pg
same,MCHC,[6],36.1%
same,MCV,[6],56.8 fL
same,Mono,[6],2.4%
same,PT,[6],16.1 s
same,RBC,[6],600.6 x10_4/ul
same,Ret,[6],0.06%
same,WBC,[6],32.9 x10_2/uL
same,Bas,[7],0%
same,Eos,[7],0.4%
same,Fbg,[7],315.6 mg/dL
same,Ht,[7],31.5%
same,Lym,[7],76.8%
same,MCH,[7],20.6 pg
same,MCHC,[7],37.1%
same,MCV,[7],55.7 fL
same,Mono,[7],1%
same,RBC,[7],566.8 x10_4/ul
same,Ret,[7],0.04%
same,WBC,[7],14.2 x10_2/uL
same,Bas,[8],0%
same,Eos,[8],0.5%
same,Fbg,[8],669 mg/dL
same,Lym,[8],31.5%
same,MCH,[8],18.1 pg
same,MCHC,[8],38%
same,MCV,[8],47.6 fL
same,Mono,[8],8%
same,PT,[8],15.1 s
same,RBC,[8],301.5 x10_4/ul
same,Ret,[8],0.2%
same,WBC,[8],44.9 x10_2/uL
same,KIDNEY_L,[6],1 g
same,KIDNEY_R,[6],1 g
same,KIDNEY_TOTAL,[6],2 g
same,KIDNEY_L,[7],1 g
same,KIDNEY_R,[7],1 g
same,KIDNEY_TOTAL,[7],2 g
same,KIDNEY_L,[8],1.4 g
same,KIDNEY_R,[8],1.4 g
same,KIDNEY_TOTAL,[8],2.8 g
same,ALP,[6],963 IU/L
same,AST,[6],66.6 IU/L
same,CRE,[6],0.2 mg/dL
same,DBIL,[6],0 mg/dL
same,GLC,[6],199.6 mg/dL
same,IP,[6],7.3 mg/dL
same,K,[6],4.5 meq/L
same,Na,[6],142.8 meq/L
same,PL,[6],170.4 mg/dL
same,RALB,[6],3 g/dL
same,TBIL,[6],0.018 mg/dL
same,TC,[6],88.8 mg/dL
same,TG,[6],110.2 mg/dL
same,TP,[6],5.6 g/dL
same,gamma-GTP,[6],1.6 IU/L
same,ALP,[7],635.6 IU/L
same,AST,[7],56.4 IU/L
same,CRE,[7],0.2 mg/dL
same,DBIL,[7],0.002 mg/dL
same,GLC,[7],200.8 mg/dL
same,K,[7],4.1 meq/L
same,Na,[7],142 meq/L
same,RALB,[7],2.9 g/dL
same,TBIL,[7],0.032 mg/dL
same,TC,[7],90.8 mg/dL
same,TG,[7],110.4 mg/dL
same,TP,[7],5.4 g/dL
same,gamma-GTP,[7],1.4 IU/L
same,ALP,[8],339 IU/L
same,AST,[8],39.5 IU/L
same,CRE,[8],0.2 mg/dL
same,DBIL,[8],0 mg/dL
same,GLC,[8],197 mg/dL
same,IP,[8],5.6 mg/dL
same,K,[8],3.9 meq/L
same,Na,[8],141.5 meq/L
same,PL,[8],357.5 mg/dL
same,RALB,[8],1.6 g/dL
same,TBIL,[8],0 mg/dL
same,TC,[8],233 mg/dL
same,TG,[8],309 mg/dL
same,TP,[8],4.5 g/dL
same,gamma-GTP,[8],14.5 IU/L
